The term IC50 denotes the midpoint of a concentration-inhibition curve.

We go through ten compounds from ChEMBL document CHEMBL3603750, “Synthesis and biological evaluation of 9-N-oxamyl sialosides as Siglec-7 ligands” (Bioorg Med Chem, 2015).

For one assay, the target named is T1, Sialic acid-binding Ig-like lectin 7 (Homo sapiens, UniProt Q9Y286). The assay is described as follows: Binding affinity to human IgG1-fused human Siglec-7-FC (Gln19 to Gly357 residues) assessed as inhibition Siglec-7-Fc binding to RBC pre-incubated for 10 mins before 20 mins incubation with RBCs by flow cytometry.
T1 sequence (Q9Y286 whole entry, the tested form may be a part): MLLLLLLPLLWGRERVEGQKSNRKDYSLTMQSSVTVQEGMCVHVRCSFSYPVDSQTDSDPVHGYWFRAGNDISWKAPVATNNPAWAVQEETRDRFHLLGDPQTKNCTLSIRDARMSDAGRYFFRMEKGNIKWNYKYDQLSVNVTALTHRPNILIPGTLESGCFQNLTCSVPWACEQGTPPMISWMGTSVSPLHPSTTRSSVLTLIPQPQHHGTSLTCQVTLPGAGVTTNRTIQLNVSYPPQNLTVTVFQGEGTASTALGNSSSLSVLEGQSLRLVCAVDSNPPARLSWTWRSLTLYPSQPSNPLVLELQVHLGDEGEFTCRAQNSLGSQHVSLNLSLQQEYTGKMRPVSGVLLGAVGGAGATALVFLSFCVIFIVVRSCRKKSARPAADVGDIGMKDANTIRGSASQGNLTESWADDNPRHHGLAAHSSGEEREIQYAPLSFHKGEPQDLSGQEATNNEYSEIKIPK
In the case of `CO[C@]1(C(=O)O)C[C@H](O)[C@@H](NC(C)=O)[C@H]([C@H](O)[C@H](O)CO)O1`, the IC50 worked out at 8.07 mM.

Turning to `CO[C@]1(C(=O)O)C[C@H](O)[C@@H](NC(C)=O)[C@H]([C@H](O)[C@H](O)CNC(=O)C(N)=O)O1`, the IC50 was determined as 1.64 mM.

The target of another assay is T1, Sialic acid-binding Ig-like lectin 7. The assay is described as follows: Potency index, ratio of IC50 for compound-1 to IC50 for test compound for binding affinity to human IgG1-fused human Siglec-7-FC (Gln19 to Gly357 residues) assessed as inhibition Siglec-7-Fc binding to RBC pre-incubated for 10 mins before 20 mins incubation with RBCs by flow cytometry.
As to `CO[C@]1(C(=O)O)C[C@H](O)[C@@H](NC(C)=O)[C@H]([C@H](O)[C@H](O)CNC(=O)C(=O)NCc2ccccc2)O1`, the Ratio IC50 worked out at 8. Turning to `CO[C@]1(C(=O)O)C[C@H](O)[C@@H](NC(C)=O)[C@H]([C@H](O)[C@H](O)CNC(=O)C(=O)NCc2ccc(-c3ccccc3)cc2)O1`, the Ratio IC50 was determined as 8. As for `CO[C@]1(C(=O)O)C[C@H](O)[C@@H](NC(C)=O)[C@H]([C@H](O)[C@H](O)CNC(=O)C(=O)Nc2ccccc2)O1`, the Ratio IC50 was determined as 58.

As for `CCC(C)NC(=O)C(=O)NC[C@@H](O)[C@@H](O)[C@@H]1O[C@@](OC)(C(=O)O)C[C@H](O)[C@H]1NC(C)=O` (mixture of isomers), the Ratio IC50 is < 2. As for `CNC(=O)C(=O)NC[C@@H](O)[C@@H](O)[C@@H]1O[C@@](OC)(C(=O)O)C[C@H](O)[C@H]1NC(C)=O`, the Ratio IC50 is < 2. Consider `CCNC(=O)C(=O)NC[C@@H](O)[C@@H](O)[C@@H]1O[C@@](OC)(C(=O)O)C[C@H](O)[C@H]1NC(C)=O`, for which the Ratio IC50 was < 2. For the compound `CO[C@]1(C(=O)O)C[C@H](O)[C@@H](NC(C)=O)[C@H]([C@H](O)[C@H](O)CO)O1`, the Ratio IC50 was 1. Still for that read-out and setting: as for `CO[C@]1(C(=O)O)C[C@H](O)[C@@H](NC(C)=O)[C@H]([C@H](O)[C@H](O)CNC(=O)C(N)=O)O1`, the figure is 4.1; as for `CO[C@]1(C(=O)O)C[C@H](O)[C@@H](NC(C)=O)[C@H]([C@H](O)[C@H](O)CNC(=O)C(=O)NC(C)C)O1`, < 2. Turning to `CO[C@]1(C(=O)O)C[C@H](O)[C@@H](NC(C)=O)[C@H]([C@H](O)[C@H](O)CNC(=O)C(=O)NC(C)(C)C)O1`, the Ratio IC50 is < 2.
